US10457710B2, “Antimicrobial peptides, their variants and uses” (priority 2015, dated 2019)
Where a SMILES comes first, the peptide text is derived from it. [ ]: non-standard residue; d: D form.

Legend:
Assay type in all cases: cell-based
[1] = test system: C. glabrata; test: MIC, clinical yeast strains
Method: (§1) Minimum inhibition concetrations (MICs) were determined against Escherichia coli (ATCC 25922), Staphylococcus aureus (ATCC 25923), Klebsiella pneumoniae (ATCC 10031) and Pseudomonas aeruginosa (ATCC 27853). Also clinical strains of E. coli, K. pneumoniae, E. cloacae, P. aeruginosa, Serratia marcescens, Proteus mirabilis, S. pneumoniae, Acinetobacter baumannii, A. johnsonii and S. aureus were used for MICs assays. Additionally, clinical strains of yeast including Candida albicans, C. glabrata, C. parapsilosis and C. quillermondiae were used. The susceptibility of these microorganisms to Chain peptides were determined using micro broth dilution assay. Colonies of the respective microorganism from Muller Hinton (MH) agar plates incubated overnight were suspended in MH broth media and final concentration of microorganism was adjusted to 5.0×10^5 cfu/ml. An aliquot of 10 μl of each Chain peptide, or gentamicin, tetracycline as reference antibiotics were added in differing concentrations along with 90 μl of bacterial suspension to 96 well polypropylene plates and incubated at 37° C. for 20 to 24 hours. Concentrations of Chain peptides and reference antibiotics ranged from 0.125 to 128 μg/ml and the MICs were recorded as the lowest concentration with no visual growth of bacteria. Similarly, antifungal MICs were tested in Potato dextrose broth.
(§2) Clinical strains of yeasts including Candida albicans, C. glabrata, C. parapsilosis and C. quillermondiae were also tested with the 12 Chain peptides. The minimum inhibitory concentration (MICs) varied between these peptides and are presented in Tables 4a, 4b, 4c and 5a, 5b, 5c. Peptides Chain 105, 201 and 308 are broad spectrum antimicrobials with MICs between 0.5-32 μg/ml against all the bacteria and yeasts tested, except Serratia marcescens and Proteus mirabilis, against which the MICs were between 64-128 μg/ml. Peptide Chain 306 has narrow spectrum activity against E. coli at 1 μg/ml and for the rest of the bacterial strains at >32 μg/ml (FIG. 10c).

[2] = test system: Candida albicans; test: MIC, clinical yeast strains
Method: as §1, §2

[3] = test system: C. parapsilosis; test: MIC, clinical yeast strains
Method: as §1, §2

[4] = test system: C. quillermondiae; test: MIC, clinical yeast strains; design: Minimum inhibitory concentration: unit: μg/ml; conditions: C. quillermondiae clinical yeast strain 1
Method: as §1, §2

[5] = test system: clinical strains of Serratia marcescens; test: MIC, microdilution, clinical strains; conditions: 0.02% BSA, 0.2% acetic acid
Method: as §1, §2

[6] = test system: clinical strains of E. cloacae; test: MIC, microdilution, clinical strains; conditions: 0.02% BSA, 0.2% acetic acid
Method: as §1, §2

[7] = test system: clinical strains of K. pneumoniae; test: MIC, microdilution, clinical strains; conditions: 0.02% BSA, 0.2% acetic acid
Method: as §1, §2

[8] = test system: clinical strains of P. aeruginosa; test: MIC, microdilution, clinical strains; conditions: 0.02% BSA, 0.2% acetic acid
Method: as §1, §2

[9] = test system: clinical strains of E. coli; test: MIC, microdilution, clinical strains; conditions: microdilution, Muller Hinton broth-cation adjusted, 0.02% BSA, 0.2% acetic acid
Method: as §1, §2

[10] = test system: clinical strains of S. pneumoniae; test: MIC, microdilution, clinical strains; conditions: 0.02% BSA, 0.2% acetic acid
Method: as §1, §2

[11] = test system: clinical strains of Proteus mirabilis; test: MIC, microdilution, clinical strains; conditions: 0.02% BSA, 0.2% acetic acid
Method: as §1, §2

[12] = test system: clinical strains of S. aureus; test: MIC, microdilution, clinical strains; conditions: 0.02% BSA, 0.2% acetic acid
Method: as §1, §2

[13] = C. glabrata clinical yeast strain 1
[14] = C. glabrata clinical yeast strain 2
[15] = C. glabrata clinical yeast strain 3
[16] = C. glabrata clinical yeast strain 4
[17] = Candida albicans clinical yeast strain 1
[18] = Candida albicans clinical yeast strain 2
[19] = Candida albicans clinical yeast strain 3
[20] = Candida albicans clinical yeast strain 4
[21] = Candida albicans clinical yeast strain 5
[22] = C. parapsilosis clinical yeast strain 1
[23] = C. parapsilosis clinical yeast strain 2
[24] = C. parapsilosis clinical yeast strain 3
[25] = C. parapsilosis clinical yeast strain 4

C[C@@H]1[C@H](O)[C@@H](C)/C=C/C=C/C=C/C=C/C=C/C=C/C=C/[C@H](O[C@@H]2O[C@H](C)[C@@H](O)[C@H](N)[C@@H]2O)C[C@@H]2O[C@](O)(C[C@@H](O)C[C@@H](O)[C@H](O)CC[C@@H](O)C[C@@H](O)CC(=O)O[C@H]1C)C[C@H](O)[C@H]2C(=O)O [Amphotericin B]
Minimum inhibitory concentration [1, 13]: 4 | Minimum inhibitory concentration [1, 14]: 4 | Minimum inhibitory concentration [1, 15]: 2 | Minimum inhibitory concentration [1, 16]: 4 | Minimum inhibitory concentration [2, 17]: 2 | Minimum inhibitory concentration [2, 18]: 0.5 | Minimum inhibitory concentration [2, 19]: 2 | Minimum inhibitory concentration [2, 20]: 2 | Minimum inhibitory concentration [2, 21]: 2 | Minimum inhibitory concentration [3, 22]: 2 | Minimum inhibitory concentration [3, 23]: 2 | Minimum inhibitory concentration [3, 24]: 2 | Minimum inhibitory concentration [3, 25]: 2 | Minimum inhibitory concentration [4]: 2

CC[C@@H](C)[C@@H](N)C(=O)N[C@H](Cc1c[nH]c2ccccc12)C(=O)N[C@H](CCCCN)C(=O)N[C@H](CCCNC(=N)N)C(=O)N[C@H](Cc1ccccc1)C(=O)N[C@H](CCCNC(=N)N)C(=O)N[C@H](CC(C)C)C(=O)N[C@H](Cc1ccccc1)C(=O)N[C@H](CCCCN)C(=O)N[C@H](CCCCN)C(=O)N[C@H](Cc1c[nH]c2ccccc12)C(=O)O [Chain304D] (H-[dI][dW][dK][dR][dF][dR][dL][dF][dK][dK][dW]-OH)
Minimum inhibitory concentration ([5]; Serratia marcescens strain 1, Muller Hinton broth-cation adjusted): >128 | Minimum inhibitory concentration ([5]; Serratia marcescens strain 2, Muller Hinton broth-cation adjusted): >128 | Minimum inhibitory concentration ([5]; Serratia marcescens strain 3, Muller Hinton broth-cation adjusted): >128 | Minimum inhibitory concentration ([5]; Serratia marcescens strain 4, Muller Hinton broth-cation adjusted): >128 | Minimum inhibitory concentration ([5]; Serratia marcescens strain 5, Muller Hinton broth-cation adjusted): >128 | Minimum inhibitory concentration ([6]; Enterobacter cloacae strain 1, Muller Hinton broth-cation adjusted): 64 | Minimum inhibitory concentration ([6]; Enterobacter cloacae strain 2, Muller Hinton broth-cation adjusted): 64 | Minimum inhibitory concentration ([6]; Enterobacter cloacae strain 3, Muller Hinton broth-cation adjusted): 128 | Minimum inhibitory concentration ([6]; Enterobacter cloacae strain 4, Muller Hinton broth-cation adjusted): 128 | Minimum inhibitory concentration ([6]; Enterobacter cloacae strain 5, Muller Hinton broth-cation adjusted): 32 | Minimum inhibitory concentration ([7]; Klebsiella pneumoniae strain 1, Muller Hinton broth-cation adjusted): >128 | Minimum inhibitory concentration ([7]; Klebsiella pneumoniae strain 2, Muller Hinton broth-cation adjusted): >128 | Minimum inhibitory concentration ([7]; Klebsiella pneumoniae strain 3, Muller Hinton broth-cation adjusted): >128 | Minimum inhibitory concentration ([7]; Klebsiella pneumoniae strain 4, Muller Hinton broth-cation adjusted): >128 | Minimum inhibitory concentration ([7]; Klebsiella pneumoniae strain 5, Muller Hinton broth-cation adjusted): 64 | Minimum inhibitory concentration ([8]; Pseudomonas aeruginosa strain 1, Muller Hinton broth-cation adjusted): 32 | Minimum inhibitory concentration ([8]; Pseudomonas aeruginosa strain 2, Muller Hinton broth-cation adjusted): 64 | Minimum inhibitory concentration ([8]; Pseudomonas aeruginosa strain 3, Muller Hinton broth-cation adjusted): 64 | Minimum inhibitory concentration ([8]; Pseudomonas aeruginosa strain 4, Muller Hinton broth-cation adjusted): 64 | Minimum inhibitory concentration ([8]; Pseudomonas aeruginosa strain 5, Muller Hinton broth-cation adjusted): 16 | Minimum inhibitory concentration ([9]; Escherichia coli strain 1): 1 | Minimum inhibitory concentration ([9]; Escherichia coli strain 2): 16 | Minimum inhibitory concentration ([9]; Escherichia coli strain 3): 16 | Minimum inhibitory concentration ([9]; Escherichia coli strain 4): 32 | Minimum inhibitory concentration ([9]; Escherichia coli strain 5): 32 | Minimum inhibitory concentration ([10]; Streptococcus pneumoniae strain 1, Muller Hinton broth-cation adjusted): 128 | Minimum inhibitory concentration ([10]; Streptococcus pneumoniae strain 2, Muller Hinton broth-cation adjusted): 128 | Minimum inhibitory concentration ([10]; Streptococcus pneumoniae strain 3, Muller Hinton broth-cation adjusted): 128 | Minimum inhibitory concentration ([10]; Streptococcus pneumoniae strain 4, Muller Hinton broth-cation adjusted): 128 | Minimum inhibitory concentration ([10]; Streptococcus pneumoniae strain 5, Muller Hinton broth-cation adjusted): 64 | Minimum inhibitory concentration ([11]; Proteus mirabilis strain 1, Muller Hinton broth-cation adjusted): >128 | Minimum inhibitory concentration ([11]; Proteus mirabilis strain 2, Muller Hinton broth-cation adjusted): >128 | Minimum inhibitory concentration ([11]; Proteus mirabilis strain 3, Muller Hinton broth-cation adjusted): >128 | Minimum inhibitory concentration ([11]; Proteus mirabilis strain 4, Muller Hinton broth-cation adjusted): >128 | Minimum inhibitory concentration ([11]; Proteus mirabilis strain 5, Muller Hinton broth-cation adjusted): >128 | Minimum inhibitory concentration ([12]; Staphylococcus aureus strain 1, Muller Hinton broth-cation adjusted): 32 | Minimum inhibitory concentration ([12]; Staphylococcus aureus strain 2, Muller Hinton broth-cation adjusted): 32 | Minimum inhibitory concentration ([12]; Staphylococcus aureus strain 3, Muller Hinton broth-cation adjusted): 16 | Minimum inhibitory concentration ([12]; Staphylococcus aureus strain 4, Muller Hinton broth-cation adjusted): 16 | Minimum inhibitory concentration ([12]; Staphylococcus aureus strain 5, Muller Hinton broth-cation adjusted): 16 | Minimum inhibitory concentration [1, 13]: 16 | Minimum inhibitory concentration [1, 14]: 16 | Minimum inhibitory concentration [1, 15]: 8 | Minimum inhibitory concentration [1, 16]: 64 | Minimum inhibitory concentration [2, 17]: 16 | Minimum inhibitory concentration [2, 18]: 16 | Minimum inhibitory concentration [2, 19]: 16 | Minimum inhibitory concentration [2, 20]: 16 | Minimum inhibitory concentration [2, 21]: 32 | Minimum inhibitory concentration [3, 22]: 64 | Minimum inhibitory concentration [3, 23]: 64 | Minimum inhibitory concentration [3, 24]: 32 | Minimum inhibitory concentration [3, 25]: 16 | Minimum inhibitory concentration [4]: 16
